{"source": "patent EP2951180B1", "about": "“2,6,7,8 SUBSTITUTED PURINES AS HDM2 INHIBITORS” (Merck Sharp & Dohme Corp., priority 2013, dated 2014)", "target": "T1, HDM2 (Homo sapiens, UniProt Q00987)", "T1 construct": "Thioredoxin (N); made in house; host or cells: E. coli strain BL21(DE3)Rosetta", "T1 sequence (Q00987 17-125)": "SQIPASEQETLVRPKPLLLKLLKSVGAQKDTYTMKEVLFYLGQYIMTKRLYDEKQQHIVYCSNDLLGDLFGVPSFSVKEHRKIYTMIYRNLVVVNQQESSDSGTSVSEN", "assay": "HDM2 FRET assay (inhibition of binding of FITC labeled p53-pocket peptide to HDM2)", "settings": "read-out: FRET IC50", "outline": "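Displacement of FITC-p53 peptide (3 nM) from His-tagged HDM2 (0.5 nM) is measured by Tb-to-fluorescein FRET in PBS, 0.01% BSA, 0.01% Tween-20. IC50 values derive from 10-point curves.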", "key": {"[1]": {"settings": "0.5 nM HDM2 (residues 17 to 125), 3nM peptide, two hour incubation at room temperature"}}, "note": "Read-outs that look alike come from different tables or passages of the source."}
{"smiles": "CC[C@H](Nc1nc(C(=O)O)nc2nc(-c3cc(C(C)C)ccn3)n(Cc3ccc(C(F)(F)F)cc3)c12)C1CCC1", "note": "[Example 6.54, 6-{[(1S)-1-cyclobutylpropyl]amino}-8-[4-(1-methylethyl)pyridin-2-yl]-7-[4-(trifluoromethyl)benzyl]-7H-purine-2-carboxylic acid]", "values": [{"measurement": "IC50", "setting": "Table 6", "result": 203, "unit": "nM"}]}
{"smiles": "CC(=O)N1CCN(c2nc3nc(-c4noc(=O)[nH]4)nc(N[C@H](C)C4CCC4)c3n2C[C@H]2CC[C@H](C)CC2)[C@H](C)C1", "note": "[Example 17.9, 3-(8-((R)-4-acetyl-2-methylpiperazin-1-yl)-6-(((R)-1-cyclobutylethyl)amino)-7-((trans-4-methylcyclohexyl)methyl)-7H-purin-2-yl)-1,2,4-oxadiazol-5(4H)-one]", "values": [{"measurement": "IC50", "setting": "Table 17.2", "result": 2.61, "unit": "nM"}]}
{"smiles": "COCC1(N(C)c2nc3nc(-c4noc(=O)[nH]4)nc(N[C@H](C)C4CCC4)c3n2Cc2ccc(C(F)(F)F)cc2)CC1", "note": "[Example 9.89, 3-(6-{[(1R)-1-cyclobutylethyl]amino}-8-{[1-(methoxymethyl)cyclopropyl] (methyl)amino}-7-[4-(trifluoromethyl)benzyl]-7H-purin-2-yl)-1,2,4-oxadiazol-5(4H)-one]", "values": [{"measurement": "IC50", "setting": "Table 9", "result": 22.6, "unit": "nM"}]}
{"smiles": "CC(C)[C@@H]1COCCN1c1nc2nc(-c3noc(=O)[nH]3)nc(-c3cccc(Cl)c3)c2n1C[C@H]1CC[C@H](C)CC1", "note": "[Example 16.42, 3-{6-(3-chlorophenyl)-7-[(trans-4-methylcyclohexyl)methyl]-8-[(3R)-3-(1-methylethyl)morpholin-4-yl]-7H-purin-2-yl}-1 ,2,4-oxadiazol-5(4H)-one]", "values": [{"measurement": "IC50", "setting": "[1]", "result": 3.62, "unit": "nM"}]}
{"smiles": "C[C@@H](Nc1nc(-c2noc(=O)[nH]2)nc2nc(C3(c4ccccn4)CC3)n(C[C@H]3CC[C@H](C)CC3)c12)C1CCC1", "note": "[Example 22.10, 3-[6-{[(1R)-1-cyclobutylethyl]amino}-7-[(trans-4-methylcyclohexyl)methyl]-8-(1-pyridin-2-ylcyclopropyl)-7H-purin-2-yl]-1,2,4-oxadiazol-5(4H)-one]", "values": [{"measurement": "IC50", "setting": "Table 22", "result": 6.29, "unit": "nM"}]}
{"smiles": "C[C@@H](Nc1nc([S+](C)[O-])nc2nc(N3CCOC[C@H]3c3ccccc3)n(C[C@H]3CC[C@H](C)CC3)c12)C1CCC1", "note": "(single isomer, unassigned) [Example 14.2]", "values": [{"measurement": "IC50", "setting": "[1]", "result": 10.5, "unit": "nM"}]}
{"smiles": "Cc1nonc1CNc1nc2nc(-c3noc(=O)[nH]3)nc(N[C@H](C)C3CCC3)c2n1C[C@H]1CC[C@H](C)CC1", "note": "[Example 11.111, 3-(6-{[(1R)-1-cyclobutylethyl]amino}-7-[(trans-4-methylcyclohexyl)methyl]-8-{[(4-methyl-1,2,5-oxadiazol-3-yl)methyl]amino}-7H-purin-2-yl)-1,2,4-oxadiazol-5(2H)-one]", "values": [{"measurement": "IC50", "setting": "Table 11", "result": 6.34, "unit": "nM"}]}
{"smiles": "C[C@@H](Nc1nc(-c2noc(=O)[nH]2)nc2nc(C(O)c3ccccc3)n(C[C@H]3CC[C@H](C)CC3)c12)C1CCC1", "note": "(stereo partly drawn) [Example 22.29, 3-(6-{[(1R)-1-cyclobutylethyl]amino}-8-[hydroxy(phenyl)methyl]-7-[(trans-4-methylcyclohexyl)methyl] -7H-purin-2-yl)-1,2,4-oxadiazol-5(4H)-one]", "values": [{"measurement": "IC50", "setting": "Table 22", "result": 1.66, "unit": "nM"}]}
{"smiles": "C[C@@H](Nc1nc(C(=O)O)nc2nc(N3CCCCC3C3CCCCC3)n(C[C@H]3CC[C@H](C)CC3)c12)C1CCC1", "note": "(stereo partly drawn) [Example 11.4, 6-(((R)-1-cyclobutylethyl)amino)-8-(2-cyclohexylpiperidin-1-yl)-7-((trans-4-methylcyclohexyl)methyl)-7H-purine-2-carboxylic acid]", "values": [{"measurement": "IC50", "setting": "Table 11", "result": 1.56, "unit": "nM"}]}
{"smiles": "Cc1cnc(-c2nc3nc(C(=O)O)nc(N[C@H](C)C4CCC4)c3n2C[C@H]2CC[C@H](C)CC2)cc1C", "note": "[Example 15.21, 6-{[(1R)-1-cyclobutylethyl]amino}-8-(4,5-dimethylpyridin-2-yl)-7-[(trans-4-methylcyclohexyl)methyl]-7H-purine-2-carboxylic acid]", "values": [{"measurement": "IC50", "setting": "[1]", "result": 8.44, "unit": "nM"}]}
{"smiles": "Cc1cccc(-c2nc3nc(C(=O)O)nc(N[C@H](CC(O)CO)C4CCC4)c3n2Cc2ccc(C(F)(F)F)cc2)c1", "note": "(stereo partly drawn) [Example 7.15, 6-{[(1R)-1-cyclobutyl-3,4-dihydroxybutyl]amino}-8-(3-methylphenyl)-7-[4-(trifluoromethyl)benzyl]-7H-purine-2-carboxylic acid]", "values": [{"measurement": "IC50", "setting": "Table 7", "result": 26.5, "unit": "nM"}]}
{"smiles": "C[C@H]1CC[C@H](Cn2c(N3CCOC[C@H]3c3ccccc3)nc3nc(C(=O)O)nc(-c4cccc(Cl)c4)c32)CC1", "note": "[Example 16.22, 6-(3-chlorophenyl)-7-[(trans-4-methylcyclohexyl)methyl]-8-[(3R)-3-phenylmorpholin-4-yl]-7H-purine-2-carboxylic acid]", "values": [{"measurement": "IC50", "setting": "[1]", "result": 0.68, "unit": "nM"}]}
{"smiles": "C[C@@H](Nc1nc(-c2n[nH]c(=O)n2C)nc2nc(N3CCOC[C@H]3c3ccccc3)n(C[C@H]3CC[C@H](C)CC3)c12)C1CCC1", "note": "[Example 12.15, 5-(6-{[(1R)-1-cyclobutylethyl]amino}-7-[(trans-4-methylcyclohexyl)methyl]-8-[(3R)-3-phenylmorpholin-4-yl]-7H-purin-2-yl)-4-methyl-2,4-dihydro-3H-1,2,4-triazol-3-one]", "values": [{"measurement": "IC50", "setting": "[1]", "result": 14.5, "unit": "nM"}]}
{"smiles": "C[C@H]1CC[C@H](Cn2c(C3(F)CCC3)nc3nc(-c4n[nH]c(=O)o4)nc(-c4cncc(Cl)c4)c32)CC1", "note": "[Example 23.38, 5-{6-(5-chloropyridin-3-yl)-8-(1-fluorocyclobutyl)-7-[(trans-4-methylcyclohexyl)methyl] -7H-purin-2-yl}-1,3,4-oxadiazol-2(3H)-one]", "values": [{"measurement": "IC50", "setting": "Table 23", "result": 31.1, "unit": "nM"}]}
{"smiles": "CC(C)c1ccnc(-c2nc3nc(C(=O)O)nc(N[C@H](C)C4CCC4)c3n2C[C@H]2CC[C@H](C)CC2)c1", "note": "[Example 15.15, 6-{[(1R)-1-cyclobutylethyl]amino}-7-[(trans-4-methylcyclohexyl)methyl]-8-[4-(1-methylethyl)pyridin-2-yl]-7H-purine-2-carboxylic acid]", "values": [{"measurement": "IC50", "setting": "[1]", "result": 2.55, "unit": "nM"}]}
{"smiles": "C[C@@H](Nc1nc(-c2noc(=O)[nH]2)nc2nc(N3CCOC[C@H]3c3ccccc3)n(Cc3ccc(Cl)c(F)c3)c12)C1CCC1", "note": "[Example 9.4, 3-{7-(4-chloro-3-fluorobenzyl)-6-{[(1R)-1-cyclobutylethyl]amino}-8-[(3R)-3-phenylmorpholin-4-yl]-7H-purin-2-yl}-1,2,4-oxadiazol-5(4H)-one]", "values": [{"measurement": "IC50", "setting": "Table 9", "result": 0.848, "unit": "nM"}]}
{"smiles": "CC(C)c1ccnc(-c2nc3nc(CO)nc(N[C@H](C)C4CCC4)c3n2Cc2ccc(C(F)(F)F)cc2)c1", "note": "[Example 12.2, (6-{[(1R)-1-cyclobutylethyl]amino}-8-[4-(propan-2-yl)pyridin-2-yl]-7-[4-(trifluoromethyl)benzyl]-7H-purin-2-yl)methanol]", "values": [{"measurement": "IC50", "setting": "[1]", "result": 597, "unit": "nM"}]}
{"smiles": "C[C@@H](Nc1nc(-c2noc(=O)[nH]2)nc2nc(C3=CCCCC3)n(C[C@H]3CC[C@H](C)CC3)c12)C1CCC1", "note": "[Example 21.37, 3-(6-{[(1R)-1-cyclobutylethyl]amino}-8-cyclohex-1-en-1-yl-7-[(trans-4-methylcyclohexyl)methyl]-7H-purin-2-yl)-1,2,4-oxadiazol-5(4H)-one]", "values": [{"measurement": "IC50", "setting": "Table 21", "result": 3.79, "unit": "nM"}]}
{"smiles": "C[C@@H](Nc1nc(C(=O)O)nc2nc(C3=C(c4ccccc4)CCCC3)n(C[C@H]3CC[C@H](C)CC3)c12)C1CCC1", "note": "[Example 21.18, 6-{[(1R)-1-cyclobutylethyl]amino}-7-[(trans-4-methylcyclohexyl)methyl]-8-(2-phenylcyclohex-1-en-1-yl)-7H-purine-2-carboxylic acid]", "values": [{"measurement": "IC50", "setting": "Table 21", "result": 6.5, "unit": "nM"}]}
{"smiles": "C[C@@H](Nc1nc(-c2noc(=O)[nH]2)nc2nc(/C=C/c3ccccc3)n(C[C@H]3CC[C@H](C)CC3)c12)C1CCC1", "note": "[Example 21.20, 3-(6-{[(1R)-1-cyclobutylethyl]amino}-7-[(trans-4-methylcyclohexyl)methyl]-8-[(E)-2-phenylethenyl]-7H-purin-2-yl)-1,2,4-oxadiazol-5(4H)-one]", "values": [{"measurement": "IC50", "setting": "Table 21", "result": 1.89, "unit": "nM"}]}
{"smiles": "COCC(c1ccccc1)c1nc2nc(-c3noc(=O)[nH]3)nc(N[C@H](C)C3CCC3)c2n1C[C@H]1CC[C@H](C)CC1", "note": "(single isomer, unassigned) [Example 21.41, 3-(6-{[(1R)-1-cyclobutylethyl]amino}-8-[(1R or S)-2-methoxy-1-phenylethyl]-7-[(trans-4-methylcyclohexyl)methyl]-7H-purin-2-yl)-1,2,4-oxadiazol-5(4H)-one]", "values": [{"measurement": "IC50", "setting": "Table 21", "result": 3.25, "unit": "nM"}]}
{"smiles": "C[C@H](CO)Nc1nc2nc(-c3noc(=O)[nH]3)nc(-c3cccc(Cl)c3)c2n1C[C@H]1CC[C@H](C)CC1", "note": "[Example 16.4, 3-(6-(3-chlorophenyl)-8-(((R)-1-hydroxypropan-2-yl)amino)-7-(((trans)-4-methylcyclohexyl)methyl)-7H-purin-2-yl)-1,2,4-oxadiazol-5(4H)-one]", "values": [{"measurement": "IC50", "setting": "[1]", "result": 29.8, "unit": "nM"}]}
{"smiles": "C[C@H]1CC[C@H](Cn2c(N3CCOC[C@H]3C(N)=O)nc3nc(-c4noc(=O)[nH]4)nc(-c4cccc(Cl)c4)c32)CC1", "note": "[Example 16.117, (3 S)-4-[6-(3-chlorophenyl)-7-[(trans-4-methylcyclohexyl)methyl]-2-(5-oxo-4,5-dihydro-1,2,4-oxadiazol-3-yl)-7H-purin-8-yl]morpholine-3-carboxamide]", "values": [{"measurement": "IC50", "setting": "[1]", "result": 105, "unit": "nM"}]}
{"smiles": "COC(C)(C)C1CCCN1c1nc2nc(-c3noc(=O)[nH]3)nc(N[C@H](C)C3CCC3)c2n1C[C@H]1CC[C@H](C)CC1", "note": "(stereo partly drawn) [Example 11.107, 3-(6-{[(1R)-1-cyclobutylethyl]amino}-8-[2-(1-methoxy-1-methylethyl)pyrrolidin-1-yl]-7-[(trans-4-methylcyclohexyl)methyl]-7H-purin-2-yl)-1,2,4-oxadiazol-5(2H)-one]", "values": [{"measurement": "IC50", "setting": "Table 11", "result": 0.507, "unit": "nM"}]}
{"smiles": "C[C@@H](Nc1nc(-c2noc(=O)[nH]2)nc2nc(N3CCCC3CS(C)(=O)=O)n(C[C@H]3CC[C@H](C)CC3)c12)C1CCC1", "note": "(stereo partly drawn) [Example 11.153, 3-(6-{[(1R)-1-cyclobutylethyl]amino}-7-[(trans-4-methylcyclohexyl)methyl]-8-{2-[(methylsulfonyl)methyl]pyrrolidin-1-yl}-7H-purin-2-yl)-1,2,4-oxadiazol-5(4H)-one]", "values": [{"measurement": "IC50", "setting": "Table 11", "result": 65.6, "unit": "nM"}]}
